Reference: publication PMC10810434, “Thymoquinone-protoflavone hybrid molecules as potential antitumor agents” (PLOS ONE, 2024)
Like-named read-outs stand apart in the source and are kept apart here.

Assays:
MDA-MB-231 = assay: In vitro antiproliferative MTT assay on MDA-MB-231; format: cell-based, human; settings: mean of two independent measurements with three replicates each, read-out: Calculated IC50 ± SEM, MDA-MB-231
From the text: (§1) Gynecological cancer cell lines of human origin including breast cancer like the triple negative MDA-MB-231 and estrogen receptor positive MCF-7, […] cervical adenocarcinoma (HeLa), and human glioblastoma (U-87) cell lines were used as in vitro models to study the antiproliferative effects of the evaluated compounds. All cell lines were cultivated in T-75 flasks in a minimal essential medium (MEM) supplemented with 10% heat-inactivated fetal bovine serum (FBS), 1% antibiotic-antimycotic mixture (penicillin-streptomycin-amphotericin B) and 1% non-essential amino acids. Non-cancerous human lung fibroblast cell line (MRC-5) was maintained in low glucose Dulbecco’s Modified Eagle Medium (DMEM) supplemented with 20% heat-inactivated FBS, 1% antibiotic-antimycotic mixture and 4 mM L-glutamine. The cells were incubated at 37°C in 5% CO^2 incubator. The cells were seeded in 96-well plates at a density of 5 x 10^3 in 100 μL per well, except for the U-87 and MRC-5 that were seeded at 1 x 10^4 density and incubated at the same conditions for overnight to allow the cells’ attachment to the well’s bottom before the treatment.
(§2) The compounds were dissolved in dimethyl sulfoxide (DMSO) as 10 mM standard stock solutions and kept at -20°C with minimum light exposure. Immediately before each experiment, the stock solution was used and diluted with a culture medium to get the final concentrations. The values of half-maximal inhibitory concentration (IC50) were determined by exposure of the cells into eight different concentrations of each tested compound (0.39, 0.78, 1.56, 3.125, 6.25, 12.5, 25 and 50 μM). Temozolomide (TMZ) and cisplatin were used as positive controls in the case of U-87 and the gynecological cell lines, respectively. The negative control wells included the cells with only MEM treatment. The plates were incubated for up to 72 hours under the same abovementioned incubation conditions. The colorimetric MTT assay was used to assess the compounds’ effect on cell proliferation. Briefly, 20 μL of MTT solution ([3-(4,5-dimethylthiazol-2-yl)-2,5-diphenyltetrazolium bromide], 5 mg/mL in PBS, Duchefa Biochemie BV, Haarlem, The Netherlands) was added to each well including the negative controls and kept under the usual incubation circumstances for additional four hours. Subsequently, the media was carefully aspirated and 100 μL of DMSO was added to each well and the plates were gently shaken for 30 min to solubilize the precipitated crystals of purple formazan. Absorbance was measured at a wavelength of 545 nm using a microplate UV-VIS reader (SPECTROstar Nano, BMG Labtech GmbH, Offenburg, Germany). The same procedure was performed using MRC-5 cells to determine the cancer selectivity of the most promising test compounds.
(§3) Cell viability data were collected from two separate experiments in triplicates and evaluated using GraphPad Prism 9.5.1 (GraphPad Software Inc., San Diego, CA, USA). The half-maximal inhibitory concentration (IC50) values were determined using the log inhibitor vs normalized response nonlinear regression model. Difference between the IC50 values of a hybrid and its corresponding fragments’ experimental combination was statistically evaluated using unpaired T-test. Cancer selectivity of the most promising test compounds was characterized by calculating and comparing their selectivity index (SI). The value of the parameter derives from the ratio of IC50 value of test compound on MRC-5 cells and that on U-87 cells. The higher the value, the better the cancer selectivity of the test compound.

MCF-7 = assay: In vitro antiproliferative MTT assay on MCF-7; format: cell-based, human; settings: mean of two independent measurements with three replicates each, read-out: Calculated IC50 ± SEM, MCF-7
From the text: as §1, §2, §3

HeLa = assay: In vitro antiproliferative MTT assay on HeLa; format: cell-based, human; settings: up to 72 hours, mean of two independent measurements with three replicates each, read-out: Calculated IC50 ± SEM, HeLa
From the text: as §1, §2, §3

U-87 glioblastoma cells = assay: In vitro antiproliferative MTT assay on U-87; format: cell-based, human
From the text: as §1, §2, §3

[1] = tested on: MRC-5 non-cancerous human lung fibroblast cell line; assay: In vitro antiproliferative MTT assay on MRC-5 (cancer selectivity); format: cell-based; settings: for IC50: MRC5, Table 3, non-cancerous human lung fibroblasts, read-out: Calculated IC50 ± SEM, MRC-5; for Selectivity index SI = IC50 (MRC-5)/IC50 (U-87): MRC-5 vs U-87
From the text: as §1, §2, §3

U-87 cells = assay: Combination assay: equimolar fragment mixtures vs hybrids on U-87; format: cell-based, human; settings: for Hybrid vs corresponding 1:1 fragment mixture, antiproliferative activity in words: U-87 cells
Description: as §2
Combination study was performed by treating cells with equimolar mixtures of the abovementioned fragments or their hybrids, and corresponding cell viability data were comparatively evaluated. In this bioassay, at least two separate experiments were performed, each in triplicate. The dataset was then subjected to appropriate statistical analysis. The calculated IC50 values were subsequently employed to quantitatively assess the extent of pharmacological benefit obtained through the hybridization of fragments in comparison to the cytotoxic effect produced by the experimental combination of PA or its derivatives and TQ fragments.
as §3

[2] = tested on: MDA-MB-231, MCF-7, HeLa, U-87; assay: In vitro antiproliferative MTT assay, cancer cell line panel; format: cell-based; settings: Homo sapiens; all tested cancer cell lines; read-out: IC50 values against cancer cells (range over cell lines)
From the text: Gynecological cancer cell lines of human origin including breast cancer like the triple negative MDA-MB-231 and estrogen receptor positive MCF-7, […] cervical adenocarcinoma (HeLa), and human glioblastoma (U-87) cell lines were used as in vitro models to study the antiproliferative effects of the evaluated compounds. All cell lines were cultivated in T-75 flasks in a minimal essential medium (MEM) supplemented with 10% heat-inactivated fetal bovine serum (FBS), 1% antibiotic-antimycotic mixture (penicillin-streptomycin-amphotericin B) and 1% non-essential amino acids. […]
The compounds were dissolved in dimethyl sulfoxide (DMSO) as 10 mM standard stock solutions and kept at -20°C with minimum light exposure. […] Absorbance was measured at a wavelength of 545 nm using a microplate UV-VIS reader (SPECTROstar Nano, BMG Labtech GmbH, Offenburg, Germany). […]
Cell viability data were collected from two separate experiments in triplicates and evaluated using GraphPad Prism 9.5.1 (GraphPad Software Inc., San Diego, CA, USA). The half-maximal inhibitory concentration (IC50) values were determined using the log inhibitor vs normalized response nonlinear regression model. Difference between the IC50 values of a hybrid and its corresponding fragments’ experimental combination was statistically evaluated using unpaired T-test. […]

[3] = Homo sapiens, MDA-MB-231, up to 72 hours
[4] = Homo sapiens, MCF7, up to 72 hours
[5] = Homo sapiens, MTT, up to 72 hours, mean of two independent measurements with three replicates each, read-out: Calculated IC50 ± SEM, U-87
[6] = Homo sapiens, Table 3, U-87 glioblastoma, read-out: Calculated IC50 ± SEM, U-87 (Table 3)

## CCOC1(c2cc(=O)c3c(O)cc(O)cc3o2)C=CC(=O)C=C1 [Compound 8]
MDA-MB-231; [3]
  IC50: 1.22 ± 0.03 µM
MCF-7; [4]
  IC50: 2.5 ± 0.11 µM
HeLa; Homo sapiens, HeLa
  IC50: 2.83 ± 0.12 µM
U-87 glioblastoma cells; [5]
  IC50: 1.73 ± 0.06 µM
U-87 glioblastoma cells; [6]
  IC50: 1.73 ± 0.06 µM
[1]
  IC50: 3.79 ± 0.25 µM
  Selectivity index SI = IC50 (MRC-5)/IC50 (U-87): 2.19

## COC1(c2cc(=O)c3c(O)cc(OC(=O)CCC4=C(C)C(=O)C=C(C(C)C)C4=O)cc3o2)C=CC(=O)C=C1 [Compound 11, 5-hydroxy-2-(1-methoxy-4-oxocyclohexa-2,5-dien-1-yl)-4-oxo-4H-chromen-7-yl 3-(5-isopropyl-2-methyl-3,6-dioxocyclohexa-1,4-dien-1-yl)propanoate]
MDA-MB-231; [3]
  IC50: 2.25 ± 0.13 µM
MCF-7; [4]
  IC50: 2.66 ± 0.11 µM
HeLa; Homo sapiens, HeLa
  IC50: 3.51 ± 0.17 µM
U-87 glioblastoma cells; [5]
  IC50: 7.63 ± 0.46 µM
U-87 cells
  Hybrid vs corresponding 1:1 fragment mixture, antiproliferative activity in words: synergism

## N.N.[Cl][Pt][Cl] [Cis, cisplatin, reference compound]
MDA-MB-231; up to 72 hours
  IC50: 9.71 ± 0.51 µM
MCF-7; up to 72 hours
  IC50: 6.55 ± 0.77 µM
HeLa
  IC50: 16 ± 2 µM
U-87 glioblastoma cells; MTT, up to 72 hours, mean of two independent measurements with three replicates each, read-out: Calculated IC50 ± SEM, U-87
  IC50: 9.13 ± 1.79 µM

## Cn1nnc2c(C(N)=O)ncn2c1=O [TMZ, temozolomide, reference compound]
U-87 glioblastoma cells; [5]
  IC50: 388 ± 43 µM
U-87 glioblastoma cells; [6]
  IC50: 388 ± 43 µM
[1]
  IC50: 1090 ± 45.1 µM
  Selectivity index SI = IC50 (MRC-5)/IC50 (U-87): 2.82

## CC1=C(CCC(=O)Oc2cc(O)c3c(=O)cc(C4(O)C=CC(=O)C=C4)oc3c2)C(=O)C(C(C)C)=CC1=O [Compound 10]
MDA-MB-231; [3]
  IC50: 1.27 ± 0.04 µM
MCF-7; [4]
  IC50: 1.65 ± 0.07 µM
HeLa; Homo sapiens, HeLa
  IC50: 2 ± 0.26 µM
U-87 glioblastoma cells; [5]
  IC50: 6.16 ± 0.49 µM

## CC1=CC(=O)C(C(C)C)=C(CCC(=O)Oc2cc(O)c3c(=O)cc(C4(O)C=CC(=O)C=C4)oc3c2)C1=O [Compound 14, 5-hydroxy-2-(1-hydroxy-4-oxocyclohexa-2,5-dien-1-yl)-4-oxo-4H-chromen-7-yl 3-(2-isopropyl-5-methyl-3,6-dioxocyclohexa-1,4-dien-1-yl)propanoate]
MDA-MB-231; [3]
  IC50: 0.52 ± 0.02 µM
MCF-7; [4]
  IC50: 1.2 ± 0.03 µM
HeLa; Homo sapiens, HeLa
  IC50: 1.06 ± 0.08 µM
U-87 glioblastoma cells; [5]
  IC50: 1.16 ± 0.2 µM
U-87 glioblastoma cells; [6]
  IC50: 1.16 ± 0.2 µM
[1]
  IC50: 5.1 ± 0.21 µM
  Selectivity index SI = IC50 (MRC-5)/IC50 (U-87): 4.40
U-87 cells
  Hybrid vs corresponding 1:1 fragment mixture, antiproliferative activity in words: synergism
U-87 cells; U-87 glioblastoma cells, hybrid vs mixture of fragments 4 and 6
  Fold stronger activity of hybrid than 1:1 mixture of its fragments: ca. three
[2]
  IC50: 0.51 to 1.2 µM

## CCCCOC1(c2cc(=O)c3c(O)cc(O)cc3o2)C=CC(=O)C=C1 [Compound 9]
MDA-MB-231; [3]
  IC50: 0.82 ± 0.05 µM
MCF-7; [4]
  IC50: 2.01 ± 0.07 µM
HeLa; Homo sapiens, HeLa
  IC50: 1.88 ± 0.1 µM
U-87 glioblastoma cells; [5]
  IC50: 1.5 ± 0.12 µM
U-87 glioblastoma cells; [6]
  IC50: 1.5 ± 0.12 µM
[1]
  IC50: 3.56 ± 0.12 µM
  Selectivity index SI = IC50 (MRC-5)/IC50 (U-87): 2.37

## COC1(c2cc(=O)c3c(O)cc(O)cc3o2)C=CC(=O)C=C1 [Compound 7]
MDA-MB-231; [3]
  IC50: 2.23 ± 0.13 µM
MCF-7; [4]
  IC50: 3.95 ± 0.3 µM
HeLa; Homo sapiens, HeLa
  IC50: 5.51 ± 0.21 µM
U-87 glioblastoma cells; [5]
  IC50: 7.03 ± 0.11 µM
